Patent EP0751957B1, “PEPTIDE FRAGMENTS OF MICROBIAL STRESS PROTEINS AND PHARMACEUTICAL COMPOSITION MADE THEREOF FOR THE TREATMENT AND PREVENTION OF INFLAMMATORY DISEASES” (priority 1994, dated 2004)

What was measured:
Type in all cases: cell-based, Lewis rats
[1] = test system: primed lymph node cells (PLNC); test: T cell proliferation assay, PLNC from peptide-immunised rats; details: PLNC 10 days after immunisation with peptide 176-190 (100 µg/DDA); in vitro peptide 20 µg/ml
Method: (§1) Immunisations with synthetic peptides and primed lymph node populations: Rats were immunised with 50 µg of synthetic peptide in PBS/DDA in each hind footpad (i.e. 50 µg/footpad, 100 µg/rat). Ten days later, draining popliteal lymph nodes were removed, disaggregated, washed three times and used as a source of primed lymph node cells (PLNC). In some experiments, PLNC were derived as pooled inguinal and popliteal lymph nodes from AA rats 35-42 days post Mt immunisation.
(§2) T cell proliferation assays: PLNC were cultured in triplicate in 200 µl flat bottom microtitre wells (Costar) at 2 x 10^5 cells per well with or without antigen. In initial experiments PLNC were tested for responsiveness to individual peptides at concentrations of 5 and 20 µg/ml, and Mt, hsp65 and PPD over a range of concentrations. Concanavalin A (2 µg/ml) was used as a positive control for T cell proliferation. Cultures were incubated for 96 h at 37°C in a humidified atmosphere of 5% CO2. Cultures were pulsed for the final 16 h with [^3H] TdR (Amersham, U.K., 1 uCi/well) and TdR uptake measured using a liquid scintillation β counter. Assays using T cell lines were performed as above using 2 x 10^4 line cells per well with irradiated (30 Gy) syngeneic accessory cells (either 3 x 10^5 splenocytes/well or 10^6 thymocytes/well). Results are expressed as mean counts per minute (cpm) of triplicate cultures. In experiments where responses to Ag were low, responses were considered significant if the stimulation index (S.I. = […]) was greater than two and Student's t tests gave p < 0.01.
To determine whether immunisation of rats with synthetic peptides was effective at priming for T cell reactivity to hsp65 epitopes, in vitro proliferative responses following immunisation with 100 µg of peptide each containing individual T cell epitopes were examined. PLNC isolated ten days after immunisation were tested for response to the immunising peptide, overlapping peptides and to hsp65 (Table II). PLNC responses were observed after immunisation with seven of the nine peptides. Responses were not seen after immunisation with peptides 386-400 and 511-525.
(§3) T cell responses by immunisation with hsp65 peptides. Rats were immunised with synthetic peptides containing individual hsp65 epitopes (100 µg peptide/DDA per rat). Ten days later PLNC were isolated and tested for responses to overlapping peptides (20 µg/ml). Peptide-specific T cell lines were generated by bulk in vitro stimulation of PLNC with immunising peptide. Lines were tested for responses to overlapping peptides (10 µg/ml). […] Results are expressed as mean cpm of triplicate cultures. All SEM were less than 20%.

[2] = test system: Peptide-specific T cell lines; test: T cell proliferation assay, peptide-specific T cell lines from peptide-immunised rats; details: T cell line from 176-190-immunised PLNC; in vitro peptide 10 µg/ml
Method: as §2
T cell lines: T cell lines with specificity for mycobacterial hsp65 or peptides were generated by bulk stimulation of either hsp65-PLNC or Mt-PLNC. PLNC were cultured at 5 x 10^6/ml in culture medium supplemented with 2% normal rat serum (NRS) in the presence of 10 µg/ml Ag. After three days viable cells were harvested using a ficoll-isopaque gradient and cultured for a further four days in culture medium + 5% FCS and 5% TCGF (Con A-activated rat spleen supernatant). Seven days after initial stimulation lines were restimulated with irradiated spleen accessory cells and 10 µg/ml Ag in culture medium + NRS. Lines were maintained ir. this seven day restimulation cycle. Short term epitope-specific T cell lines were also generated from rats immunised with synthetic peptides. Peptide-PLNC were cultured as above in the presence of 10 µg/ml peptide.
Bulk stimulation generated T cell lines to eight of the nine peptides tested. These eight lines were tested for specificity after four in vitro restimulations (Table II). All responded to the immunising peptide and, to some extent, to hsp65.
as §3

[3] = test system: hsp65-specific T cell line; test: T cell proliferation assay, hsp65-specific T cell line; details: short term lines from ten day hsp65-PLNC, seven days after first restimulation
Method: as §2
T cell lines: T cell lines with specificity for mycobacterial hsp65 or peptides were generated by bulk stimulation of either hsp65-PLNC or Mt-PLNC. PLNC were cultured at 5 x 10^6/ml in culture medium supplemented with 2% normal rat serum (NRS) in the presence of 10 µg/ml Ag. […]

[4] = test system: Mt-PLNC; test: T cell proliferation assay, Mt-PLNC; details: PLNC from rats immunised with Mt mixed with DDA
Method: Immunisations and primed lymph node populations: Rats were immunised with either Mt or hsp65. Mt was suspended at 5 mg/ml in IFA or DDA and 100 µl injected in each hind footpad (i.e. 500 µg/footpad, 1 mg/rat). Hsp65 (1 mg/ml in PBS) was mixed 1:1 with DDA and 100 µl injected (i.e. 50 µg/footpad, 100 µg/rat). Ten to 21 days later, draining popliteal lymph nodes were removed, disaggregated, washed three times and used as a source of primed lymph node cells (PLNC). In control experiments splenocytes and lymph nodes from unimmunised rats and PLNC from rats immunised with IFA or DDA/PBS alone were used.
T cell proliferation assays: PLNC were cultured in triplicate in 200 µl flat bottom microtitre wells (Costar) at 2 x 10^5 cells per well with or without antigen. In initial experiments PLNC were tested for responsiveness to individual peptides at concentrations of 5 and 20 µg/ml, and Mt, hsp65 and PPD over a range of concentrations. Concanavalin A (2 µg/ml) was used as a positive control for T cell proliferation. Cultures were incubated for 96 h at 37°C in a humidified atmosphere of 5% CO2. Cultures were pulsed for the final 16 h with [^3H] TdR (Amersham, U.K., 1 uCi/well) and TdR uptake measured using a liquid scintillation β counter. […] Results are expressed as mean counts per minute (cpm) of triplicate cultures. […]

[5] = test system: PLNC from preimmunised rats; test: T cell proliferation assay, PLNC of peptide-preimmunised AA rats 42 days after Mt; details: 42 days after Mt administration
Method: as §1, §2
PLNC from preimmunised rats were tested for responsiveness to hsp65 epitopes 42 days after Mt administration (Fig. 8). […] Responses to peptide 176-190 containing the AA-associated epitope were found in all PLNC populations (and enhanced after 176-190 preimmunisation) with one exception.

peptide 176-190: synthetic 15mer of mycobacterial hsp65 containing the AA-associated epitope 180-188
CPM PLNC [1]: 57707 cpm | CPM T Cell Line [2]: 31400 cpm | hsp65-specific T cell line response to peptide [3]: strong responses | Mt/DDA-PLNC response to hsp65 peptide [4]: dominant | PLNC response to peptide, rats preimmunised with PBS/DDA alone [5]: significant responses | PLNC response to peptide, rats preimmunised with peptide 256-270 ([5]; rats protected from AA): total lack of response
